# Assay results taken from ChEMBL document CHEMBL4665624, “Synthesis of 5-(4-(1H-phenanthro[9,10-d]imidazol-2-yl)benzylidene)thiazolidine-2,4-dione as promising DNA and serum albumin-binding agents and evaluation of antitumor activity” (Eur J Med Chem, 2019).
# Experiments:
# [1] = system: CCRF-CEM; assay: Antitumor activity against human CCRF-CEM cells assessed as cell growth inhibition at 10 uM incubated for 48 hrs by sulforhodamine B assay; type: functional; details: read-out: GI
# [2] = system: HL-60(TB); assay: Antitumor activity against human HL-60(TB) cells assessed as cell growth inhibition at 10 uM incubated for 48 hrs by sulforhodamine B assay; type: functional; details: read-out: GI
# [3] = system: K562; assay: Antitumor activity against human K562 cells assessed as cell growth inhibition at 10 uM incubated for 48 hrs by sulforhodamine B assay; type: functional; details: read-out: GI
# [4] = system: MOLT-4; assay: Antitumor activity against human MOLT4 cells assessed as cell growth inhibition at 10 uM incubated for 48 hrs by sulforhodamine B assay; type: functional; details: read-out: GI
# [5] = system: RPMI-8226; assay: Antitumor activity against human RPMI8226 cells assessed as cell growth inhibition at 10 uM incubated for 48 hrs by sulforhodamine B assay; type: functional; details: read-out: GI
# [6] = system: SR; assay: Antitumor activity against human SR cells assessed as cell growth inhibition at 10 uM incubated for 48 hrs by sulforhodamine B assay; type: functional; details: read-out: GI
# [7] = system: EKVX; assay: Antitumor activity against human EKVX cells assessed as cell growth inhibition at 10 uM incubated for 48 hrs by sulforhodamine B assay; type: functional; details: read-out: GI
# [8] = system: HOP-92; assay: Antitumor activity against human HOP92 cells assessed as cell growth inhibition at 10 uM incubated for 48 hrs by sulforhodamine B assay; type: functional; details: read-out: GI
# [9] = system: NCI-H226; assay: Antitumor activity against human NCI-H226 assessed as cell growth inhibition at 10 uM incubated for 48 hrs by sulforhodamine B assay; type: functional; details: read-out: GI
# [10] = system: NCI-H23; assay: Antitumor activity against human NCI-H23 cells assessed as cell growth inhibition at 10 uM incubated for 48 hrs by sulforhodamine B assay; type: functional; details: read-out: GI
# [11] = system: NCI-H460; assay: Antitumor activity against human NCI-H460 assessed as cell growth inhibition at 10 uM incubated for 48 hrs by sulforhodamine B assay; type: functional; details: read-out: GI
# [12] = system: NCI-H522; assay: Antitumor activity against human NCI-H522 cells assessed as cell growth inhibition at 10 uM incubated for 48 hrs by sulforhodamine B assay; type: functional; details: read-out: GI
# [13] = system: COLO 205; assay: Antitumor activity against human COLO205 cells assessed as cell growth inhibition at 10 uM incubated for 48 hrs by sulforhodamine B assay; type: functional; details: read-out: GI
# [14] = system: HCC 2998; assay: Antitumor activity against human HCC2998 cells assessed as cell growth inhibition at 10 uM incubated for 48 hrs by sulforhodamine B assay; type: functional; details: read-out: GI
# [15] = system: HCT-116; assay: Antitumor activity against human HCT116 cells assessed as cell growth inhibition at 10 uM incubated for 48 hrs by sulforhodamine B assay; type: functional; details: read-out: GI
# [16] = system: HCT-15; assay: Antitumor activity against human HCT15 cells assessed as cell growth inhibition at 10 uM incubated for 48 hrs by sulforhodamine B assay; type: functional; details: read-out: GI
# [17] = system: HT-29; assay: Antitumor activity against human HT-29 cells assessed as cell growth inhibition at 10 uM incubated for 48 hrs by sulforhodamine B assay; type: functional; details: read-out: GI
# [18] = system: KM12; assay: Antitumor activity against human KM12 cells assessed as cell growth inhibition at 10 uM incubated for 48 hrs by sulforhodamine B assay; type: functional; details: read-out: GI
# [19] = system: SF-268; assay: Antitumor activity against human SF268 cells assessed as cell growth inhibition at 10 uM incubated for 48 hrs by sulforhodamine B assay; type: functional; details: read-out: GI
# [20] = system: SF-295; assay: Antitumor activity against human SF295 cells assessed as cell growth inhibition at 10 uM incubated for 48 hrs by sulforhodamine B assay; type: functional; details: read-out: GI
# [21] = system: SNB-19; assay: Antitumor activity against human SNB-19 cells assessed as cell growth inhibition at 10 uM incubated for 48 hrs by sulforhodamine B assay; type: functional; details: read-out: GI
# [22] = system: SNB-75; assay: Antitumor activity against human SNB-75 cells assessed as cell growth inhibition at 10 uM incubated for 48 hrs by sulforhodamine B assay; type: functional; details: read-out: GI
# [23] = system: U-251; assay: Antitumor activity against human U251 cells assessed as cell growth inhibition at 10 uM incubated for 48 hrs by sulforhodamine B assay; type: functional; details: read-out: GI
# [24] = system: LOX IMVI; assay: Antitumor activity against human LOX IMVI cells assessed as cell growth inhibition at 10 uM incubated for 48 hrs by sulforhodamine B assay; type: functional; details: read-out: GI
# [25] = system: Malme-3M; assay: Antitumor activity against human MALME-3M cells assessed as cell growth inhibition at 10 uM incubated for 48 hrs by sulforhodamine B assay; type: functional; details: read-out: GI
# [26] = system: M14; assay: Antitumor activity against human M14 cells assessed as cell growth inhibition at 10 uM incubated for 48 hrs by sulforhodamine B assay; type: functional; details: read-out: GI
# [27] = system: MDA-MB-435; assay: Antitumor activity against human MDA-MB-435 cells assessed as cell growth inhibition at 10 uM incubated for 48 hrs by sulforhodamine B assay; type: functional; details: read-out: GI
# [28] = system: SK-MEL-28; assay: Antitumor activity against human SK-MEL-28 cells assessed as cell growth inhibition at 10 uM incubated for 48 hrs by sulforhodamine B assay; type: functional; details: read-out: GI
# [29] = system: UACC-62; assay: Antitumor activity against human UACC-62 cells assessed as cell growth inhibition at 10 uM incubated for 48 hrs by sulforhodamine B assay; type: functional; details: read-out: GI
# [30] = system: IGROV-1; assay: Antitumor activity against human IGROV1 cells assessed as cell growth inhibition at 10 uM incubated for 48 hrs by sulforhodamine B assay; type: functional; details: read-out: GI
# [31] = system: OVCAR-3; assay: Antitumor activity against human OVCAR-3 cells assessed as cell growth inhibition at 10 uM incubated for 48 hrs by sulforhodamine B assay; type: functional; details: read-out: GI
# [32] = system: OVCAR-4; assay: Antitumor activity against human OVCAR-4 cells assessed as cell growth inhibition at 10 uM incubated for 48 hrs by sulforhodamine B assay; type: functional; details: read-out: GI
# [33] = system: OVCAR-8; assay: Antitumor activity against human OVCAR-8 cells assessed as cell growth inhibition at 10 uM incubated for 48 hrs by sulforhodamine B assay; type: functional; details: read-out: GI
# [34] = system: NCI/ADR-RES; assay: Antitumor activity against human NCI/ADR-RES cells assessed as cell growth inhibition at 10 uM incubated for 48 hrs by sulforhodamine B assay; type: functional; details: read-out: GI
# [35] = system: SK-OV-3; assay: Antitumor activity against human SK-OV-3 cells assessed as cell growth inhibition at 10 uM incubated for 48 hrs by sulforhodamine B assay; type: functional; details: read-out: GI
# [36] = system: 786-0; assay: Antitumor activity against human 786-0 cells assessed as cell growth inhibition at 10 uM incubated for 48 hrs by sulforhodamine B assay; type: functional; details: read-out: GI
# [37] = system: A498; assay: Antitumor activity against human A498 cells assessed as cell growth inhibition at 10 uM incubated for 48 hrs by sulforhodamine B assay; type: functional; details: read-out: GI
# [38] = system: ACHN; assay: Antitumor activity against human ACHN cells assessed as cell growth inhibition at 10 uM incubated for 48 hrs by sulforhodamine B assay; type: functional; details: read-out: GI
# [39] = system: RXF 393; assay: Antitumor activity against human RXF 393 cells assessed as cell growth inhibition at 10 uM incubated for 48 hrs by sulforhodamine B assay; type: functional; details: read-out: GI
# [40] = system: SN12C; assay: Antitumor activity against human SN12C cells assessed as cell growth inhibition at 10 uM incubated for 48 hrs by sulforhodamine B assay; type: functional; details: read-out: GI
# [41] = system: UO-31; assay: Antitumor activity against human UO-31 cells assessed as cell growth inhibition at 10 uM incubated for 48 hrs by sulforhodamine B assay; type: functional; details: read-out: GI
# [42] = system: PC-3; assay: Antitumor activity against human PC-3 cells assessed as cell growth inhibition at 10 uM incubated for 48 hrs by sulforhodamine B assay; type: functional; details: read-out: GI
# [43] = system: MCF7; assay: Antitumor activity against human MCF7 cells assessed as cell growth inhibition at 10 uM incubated for 48 hrs by sulforhodamine B assay; type: functional; details: read-out: GI
# [44] = system: MDA-MB-231; assay: Antitumor activity against human MDA-MB-231/ATCC cells assessed as cell growth inhibition at 10 uM incubated for 48 hrs by sulforhodamine B assay; type: functional; details: read-out: GI
# [45] = system: Hs-578T; assay: Antitumor activity against human HS 578T cells assessed as cell growth inhibition at 10 uM incubated for 48 hrs by sulforhodamine B assay; type: functional; details: read-out: GI
# [46] = system: BT-549; assay: Antitumor activity against human BT-549 cells assessed as cell growth inhibition at 10 uM incubated for 48 hrs by sulforhodamine B assay; type: functional; details: read-out: GI
# [47] = system: MDA-MB-468; assay: Antitumor activity against human MDA-MB-468 cells assessed as cell growth inhibition at 10 uM incubated for 48 hrs by sulforhodamine B assay; type: functional; details: read-out: GI
# [48] = system: SW-620; assay: Antitumor activity against human SW620 cells assessed as cell growth inhibition at 10 uM incubated for 48 hrs by sulforhodamine B assay; details: SW-620, 48 h, read-out: GI
smiles,measurement,setting,value
c1cc2ccc3ccc(-c4nc5c6ccccc6c6ccccc6c5[nH]4)c4ccc(c1)c2c34,inhibition of growth at 10 µM,[1],10.3%
same,inhibition of growth at 10 µM,[2],< 10%
same,inhibition of growth at 10 µM,[3],< 10%
same,inhibition of growth at 10 µM,[4],26.8%
same,inhibition of growth at 10 µM,[5],10.6%
same,inhibition of growth at 10 µM,[6],23.7%
same,inhibition of growth at 10 µM,[7],< 10%
same,inhibition of growth at 10 µM,[8],27.1%
same,inhibition of growth at 10 µM,[9],76.2%
same,inhibition of growth at 10 µM,[10],< 10%
same,inhibition of growth at 10 µM,[11],< 10%
same,inhibition of growth at 10 µM,[12],17.5%
same,inhibition of growth at 10 µM,[13],< 10%
same,inhibition of growth at 10 µM,[14],< 10%
same,inhibition of growth at 10 µM,[15],16.6%
same,inhibition of growth at 10 µM,[16],< 10%
same,inhibition of growth at 10 µM,[17],< 10%
same,inhibition of growth at 10 µM,[18],13.5%
same,inhibition of growth at 10 µM,[19],14.6%
same,inhibition of growth at 10 µM,[20],< 10%
same,inhibition of growth at 10 µM,[21],< 10%
same,inhibition of growth at 10 µM,[22],< 10%
same,inhibition of growth at 10 µM,[23],< 10%
same,inhibition of growth at 10 µM,[24],13.7%
same,inhibition of growth at 10 µM,[25],< 10%
same,inhibition of growth at 10 µM,[26],< 10%
same,inhibition of growth at 10 µM,[27],< 10%
same,inhibition of growth at 10 µM,[28],< 10%
same,inhibition of growth at 10 µM,[29],38.4%
same,inhibition of growth at 10 µM,[30],13.2%
same,inhibition of growth at 10 µM,[31],< 10%
same,inhibition of growth at 10 µM,[32],< 10%
same,inhibition of growth at 10 µM,[33],< 10%
same,inhibition of growth at 10 µM,[34],< 10%
same,inhibition of growth at 10 µM,[35],< 10%
same,inhibition of growth at 10 µM,[36],< 10%
same,inhibition of growth at 10 µM,[37],36.3%
same,inhibition of growth at 10 µM,[38],10.3%
same,inhibition of growth at 10 µM,[39],< 10%
same,inhibition of growth at 10 µM,[40],< 10%
same,inhibition of growth at 10 µM,[41],37.2%
same,inhibition of growth at 10 µM,[42],21.2%
same,inhibition of growth at 10 µM,[43],23.1%
same,inhibition of growth at 10 µM,[44],23.2%
same,inhibition of growth at 10 µM,[45],< 10%
same,inhibition of growth at 10 µM,[46],< 10%
same,inhibition of growth at 10 µM,[47],78.1%
same,inhibition of growth at 10 µM,[48],< 10%
